Measurements as given in PubChem BioAssay AID1963874 (Molecular Pharmacology Branch, DTP, NCI, 2024).

Test system: 253994-281-T-J1-PDC KRAS-mutant spheroids with HUVEC/MSC, viability
Assay: Anticancer human tumor 253994-281-T-J1-PDC patient-derived colorectal carcinoma cell line growth inhibition [KRAS2]
Details: for IC50: curve of first compound; for viability, T/C: stronger effect = lower value
How it was run: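 Combination screen of spheroid viability in tumor-cell co-cultures with endothelial (HUVEC) and mesenchymal stem cell stroma. Each agent was tested in half-log dilutions, topping at clinical Cmax or at 10 microM without a known Cmax.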

[1] = second compound 0.1 µM, first compound 0.01 µM
[2] = second compound 0.1 µM, first compound 0.0316 µM
[3] = second compound 0.1 µM, first compound 0.1 µM
[4] = second compound 0.316 µM, first compound 0.01 µM
[5] = second compound 0.316 µM, first compound 0.0316 µM
[6] = second compound 0.316 µM, first compound 0.1 µM
[7] = second compound 1 µM, first compound 0.01 µM
[8] = second compound 1 µM, first compound 0.0316 µM
[9] = second compound 1 µM, first compound 0.1 µM
[10] = second compound 3.16 µM, first compound 0.01 µM
[11] = second compound 3.16 µM, first compound 0.0316 µM
[12] = second compound 3.16 µM, first compound 0.1 µM
[13] = second compound 10 µM, first compound 0.01 µM
[14] = second compound 10 µM, first compound 0.0316 µM
[15] = second compound 10 µM, first compound 0.1 µM
[16] = second compound 0.1 µM, first compound 0.316 µM
[17] = second compound 0.1 µM, first compound 1 µM
[18] = second compound 0.1 µM, first compound 3.16 µM
[19] = second compound 0.1 µM, first compound 10 µM
[20] = second compound 0.316 µM, first compound 0.316 µM
[21] = second compound 0.316 µM, first compound 1 µM
[22] = second compound 0.316 µM, first compound 3.16 µM
[23] = second compound 0.316 µM, first compound 10 µM
[24] = second compound 1 µM, first compound 0.316 µM
[25] = second compound 1 µM, first compound 1 µM
[26] = second compound 1 µM, first compound 3.16 µM
[27] = second compound 1 µM, first compound 10 µM
[28] = second compound 3.16 µM, first compound 0.316 µM
[29] = second compound 3.16 µM, first compound 1 µM
[30] = second compound 3.16 µM, first compound 3.16 µM
[31] = second compound 3.16 µM, first compound 10 µM
[32] = second compound 10 µM, first compound 0.316 µM
[33] = second compound 10 µM, first compound 1 µM
[34] = second compound 10 µM, first compound 3.16 µM
[35] = second compound 10 µM, first compound 10 µM
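Also: spheroids exposed to agents for seven days before readout.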
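For viability, T/C in this document: percent of DMSO vehicle control viability.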

| SMILES | IC50 (second compound 0.1 µM) [nM] | IC50 (second compound 0.316 µM) [nM] | IC50 (second compound 1 µM) [nM] | IC50 (second compound 3.16 µM) [nM] | IC50 (second compound 10 µM) [nM] | viability, T/C [2] [%] | viability, T/C [3] [%] | viability, T/C [5] [%] | viability, T/C [6] [%] | viability, T/C [8] [%] | viability, T/C [9] [%] | viability, T/C [11] [%] | viability, T/C [12] [%] | viability, T/C [14] [%] | viability, T/C [15] [%] | viability, T/C [16] [%] | viability, T/C [17] [%] | viability, T/C [18] [%] | viability, T/C [20] [%] | viability, T/C [21] [%] | also measured |
| --- | --- | --- | --- | --- | --- | --- | --- | --- | --- | --- | --- | --- | --- | --- | --- | --- | --- | --- | --- | --- | --- |
| CN(C)C/C=C/C(=O)Nc1cc2c(Nc3ccc(F)c(Cl)c3)ncnc2cc1O[C@H]1CCOC1 + CC1OCC2(CCN(c3cnc(Sc4ccnc(N)c4Cl)c(N)n3)CC2)C1N | > 100 | 86.5 | > 100 | < 0.316 | > 100 | 81.4 | 58.5 | 74 | 47 | 86.2 | 83.5 | 37.6 | 31.4 | 83.7 | 65.7 |  |  |  |  |  | viability, T/C (second compound 0.1 µM, first compound 0.000316 µM): 85.5%; viability, T/C (second compound 0.1 µM, first compound 0.001 µM): 74.8%; viability, T/C (second compound 0.1 µM, first compound 0.00316 µM): 91.2%; viability, T/C [1]: 79.3%; viability, T/C (second compound 0.316 µM, first compound 0.000316 µM): 57.1%; viability, T/C (second compound 0.316 µM, first compound 0.001 µM): 72.1%; viability, T/C (second compound 0.316 µM, first compound 0.00316 µM): 79.6%; viability, T/C [4]: 70.6%; viability, T/C (second compound 1 µM, first compound 0.000316 µM): 79%; viability, T/C (second compound 1 µM, first compound 0.001 µM): 97%; viability, T/C (second compound 1 µM, first compound 0.00316 µM): 79.5%; viability, T/C [7]: 86.3%; viability, T/C (second compound 3.16 µM, first compound 0.000316 µM): 31.1%; viability, T/C (second compound 3.16 µM, first compound 0.001 µM): 37.2%; viability, T/C (second compound 3.16 µM, first compound 0.00316 µM): 37.3%; viability, T/C [10]: 42.9%; viability, T/C (second compound 10 µM, first compound 0.000316 µM): 75.4%; viability, T/C (second compound 10 µM, first compound 0.001 µM): 102%; viability, T/C (second compound 10 µM, first compound 0.00316 µM): 78.1%; viability, T/C [13]: 106% |
| O=C(c1cc(Cc2n[nH]c(=O)c3ccccc23)ccc1F)N1CCN(C(=O)C2CC2)CC1 + CC1OCC2(CCN(c3cnc(Sc4ccnc(N)c4Cl)c(N)n3)CC2)C1N | > 10000 | > 10000 | > 10000 | < 31.6 | 655 | 99 | 81.4 | 79.8 | 65.7 | 93.3 | 94.1 | 52.8 | 46.2 | 47.2 | 45.5 | 93.7 | 90.7 | 84.2 | 62.9 | 120 | viability, T/C [19]: 95.5%; viability, T/C [22]: 84.6%; viability, T/C [23]: 79.5%; viability, T/C [24]: 93.2%; viability, T/C [25]: 81%; viability, T/C [26]: 80.2%; viability, T/C [27]: 90.7%; viability, T/C [28]: 46.5%; viability, T/C [29]: 48.4%; viability, T/C [30]: 45.6%; viability, T/C [31]: 57.6%; viability, T/C [32]: 115%; viability, T/C [33]: 38.8%; viability, T/C [34]: 31.6%; viability, T/C [35]: 30.4% |
| CC1COCCN1c1cc(-c2ccnn2C)c2ccnc(-c3ccn[nH]3)c2n1 (stereo not given) + C=CC(=O)N1CCN(c2nc(=O)n(-c3c(C)ccnc3C(C)C)c3nc(-c4c(O)cccc4F)c(F)cc23)C(C)C1 | > 3160 | > 3160 | > 3160 | > 3160 | > 3160 | 93.9 | 76.9 | 90 | 76.6 | 89 | 72.7 | 99.6 | 73.2 | 111 | 75.2 | 55.7 | 50.6 | 56.5 | 51.7 | 60.8 | viability, T/C [1]: 97.5%; viability, T/C [4]: 105%; viability, T/C [22]: 57.4%; viability, T/C [7]: 105%; viability, T/C [24]: 61.9%; viability, T/C [25]: 59.6%; viability, T/C [26]: 57.2%; viability, T/C [10]: 100%; viability, T/C [28]: 51.7%; viability, T/C [29]: 51.4%; viability, T/C [30]: 58.9%; viability, T/C [13]: 94.9%; viability, T/C [32]: 56.4%; viability, T/C [33]: 55.3%; viability, T/C [34]: 62% |
| CC(=O)OC12COC1CC(O)C1(C)C(=O)C(O)C3=C(C)C(OC(=O)C(O)C(NC(=O)OC(C)(C)C)c4ccccc4)CC(O)(C(OC(=O)c4ccccc4)C21)C3(C)C (stereo not given) + C=CC(=O)N1CCN(c2nc(=O)n(-c3c(C)ccnc3C(C)C)c3nc(-c4c(O)cccc4F)c(F)cc23)C(C)C1 | 33.8 | 27.6 | 19.2 | 28.3 | 54.8 | 51.4 | 26.4 | 43 | 34.4 | 44.4 | 29.6 | 47.9 | 33.3 | 55 | 46.6 | 27.2 | 29.8 | 25.3 | 28.1 | 25.9 | viability, T/C [1]: 78.6%; viability, T/C [4]: 92.4%; viability, T/C [22]: 26.8%; viability, T/C [7]: 59.9%; viability, T/C [24]: 29%; viability, T/C [25]: 27.2%; viability, T/C [26]: 25.2%; viability, T/C [10]: 69.1%; viability, T/C [28]: 27.7%; viability, T/C [29]: 27.5%; viability, T/C [30]: 28.6%; viability, T/C [13]: 71.2%; viability, T/C [32]: 29.7%; viability, T/C [33]: 30.3%; viability, T/C [34]: 36.1% |
| CC(C)NCC(C(=O)N1CCN(c2ncnc3c2C(C)CC3O)CC1)c1ccc(Cl)cc1 (stereo not given) + C=CC(=O)N1CCN(c2nc(=O)n(-c3c(C)ccnc3C(C)C)c3nc(-c4c(O)cccc4F)c(F)cc23)C(C)C1 | > 10000 | > 10000 | > 10000 | > 10000 | > 10000 | 108 | 95.9 | 107 | 105 | 103 | 119 | 114 | 106 | 95.3 | 97.9 | 98.6 | 109 | 102 | 99.7 | 92.2 | viability, T/C [19]: 86.4%; viability, T/C [22]: 84.8%; viability, T/C [23]: 91.6%; viability, T/C [24]: 99.9%; viability, T/C [25]: 99.5%; viability, T/C [26]: 88.9%; viability, T/C [27]: 92.8%; viability, T/C [28]: 105%; viability, T/C [29]: 87.2%; viability, T/C [30]: 78%; viability, T/C [31]: 79.5%; viability, T/C [32]: 103%; viability, T/C [33]: 103%; viability, T/C [34]: 73.9%; viability, T/C [35]: 104% |
| CC(C)NCC(C(=O)N1CCN(c2ncnc3c2C(C)CC3O)CC1)c1ccc(Cl)cc1 (stereo not given) + CNCc1ccccc1-c1csc(C(C)Nc2nc(C)nc3cc(OC)c(OC)cc23)c1 | > 10000 | > 10000 | > 10000 | < 31.6 | < 31.6 | 110 | 109 | 110 | 96 | 121 | 108 | 38.1 | 29.8 | 0.17 | 0.14 | 99.6 | 111 | 94.7 | 98.2 | 113 | viability, T/C [19]: 105%; viability, T/C [22]: 107%; viability, T/C [23]: 101%; viability, T/C [24]: 88.1%; viability, T/C [25]: 103%; viability, T/C [26]: 95.2%; viability, T/C [27]: 99.4%; viability, T/C [28]: 24%; viability, T/C [29]: 34.8%; viability, T/C [30]: 24.1%; viability, T/C [31]: 40.1%; viability, T/C [32]: 0.14%; viability, T/C [33]: 0.16%; viability, T/C [34]: 0.13%; viability, T/C [35]: 0.27% |
